Measurements: publication PMC3113527 (Journal of agricultural and food chemistry, 2011)

Legend:
[1] = molecular target: secreted phospholipase A2 (PLA2) (Apis mellifera, UniProt P00630); experiment: biochemical; conditions: read-out: Inhibition of PLA2
[2] = molecular target: T1, Lipase from porcine pancreas (PL) (Sus scrofa, UniProt P00591); experiment: Pancreatic lipase inhibition assay in vitro; format: biochemical; conditions: read-out: Inhibition of PL
T1 sequence (P00591 1-450): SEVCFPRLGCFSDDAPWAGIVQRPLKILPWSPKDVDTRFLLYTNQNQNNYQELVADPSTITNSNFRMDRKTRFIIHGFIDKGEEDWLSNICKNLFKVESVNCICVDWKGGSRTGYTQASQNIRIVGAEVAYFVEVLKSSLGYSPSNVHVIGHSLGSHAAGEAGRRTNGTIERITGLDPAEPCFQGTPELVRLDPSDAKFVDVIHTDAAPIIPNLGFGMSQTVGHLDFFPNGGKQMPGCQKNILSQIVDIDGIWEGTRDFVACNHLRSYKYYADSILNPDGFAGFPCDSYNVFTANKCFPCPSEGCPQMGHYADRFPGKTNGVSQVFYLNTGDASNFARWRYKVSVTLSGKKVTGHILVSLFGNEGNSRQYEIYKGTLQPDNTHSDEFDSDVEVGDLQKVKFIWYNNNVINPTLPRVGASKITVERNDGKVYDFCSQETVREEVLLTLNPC

PLA2 = conditions: at 2 mM; cited from earlier work

Sequence of secreted phospholipase A2 (PLA2) (P00630 34-167 limits assumed): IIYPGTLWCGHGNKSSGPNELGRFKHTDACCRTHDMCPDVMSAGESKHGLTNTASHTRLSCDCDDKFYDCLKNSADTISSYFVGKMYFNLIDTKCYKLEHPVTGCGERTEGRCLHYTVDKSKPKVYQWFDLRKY

Oc1cc(O)c2c(c1)O[C@H](c1ccc(O)c(O)c1)[C@H](O)C2 [EC, (−)-epicatechin]
inhibition at 100 µM [1]: 4.5%
inhibition at 20 µM [2]: 15%

CCCCCCCCCCC[C@@H](C[C@@H]1OC(=O)[C@H]1CCCCCC)OC(=O)[C@H](CC(C)C)NC=O [Orlistat]
inhibition at 10 µM [2]: 72%

O=C(O[C@@H]1Cc2c(O)cc(O)cc2O[C@@H]1c1cc(O)c(O)c(O)c1)c1cc(O)c(O)c(O)c1 [EGCG]
Inhibition of PLA2 in vitro (PLA2): 64.9%
